Aggregation % and aggregation data for eleven compounds are collected here from ChEMBL document CHEMBL1155760, “Quinoline alkaloids and other constituents of Melicope semecarpifolia with antiplatelet aggregation activity” (2001).

SMILES strings stand for the structures.

Conditions in all cases: Oryctolagus cuniculus
A short description of assay [1]: Antiplatelet activity against washed rabbit platelet assessed as arachidonic acid-induced platelet aggregation at 100 ug/mL pre-incubated 3 mins before arachidonic acid challenge by turbidimetric method.
A short description of assay [2]: Antiplatelet activity against washed rabbit platelet assessed as platelet activating factor-induced platelet aggregation at 100 ug/mL pre-incubated 3 mins before PAF challenge by turbidimetric method.
Assay [3] in a line: Antiplatelet activity against washed rabbit platelet assessed as thrombin-induced platelet aggregation at 100 ug/mL pre-incubated 3 mins before thrombin challenge by turbidimetric method.
A short description of assay [4]: Antiplatelet activity against washed rabbit platelet assessed as collagen-induced platelet aggregation at 100 ug/mL pre-incubated 3 mins before collagen challenge by turbidimetric method.
Assay [5] can be described thus: Antiplatelet activity against washed rabbit platelet assessed as thrombin-induced platelet aggregation at 50 ug/mL preincubated 3 mins before thrombin challenge by turbidimetric method.
A short description of assay [6]: Antiplatelet activity against washed rabbit platelet assessed as collagen-induced platelet aggregation at 50 ug/mL pre-incubated 3 mins before collagen challenge by turbidimetric method.
Assay [7] in a line: Antiplatelet activity against washed rabbit platelet assessed as arachidonic acid-induced platelet aggregation at 50 ug/mL preincubated 3 mins before arachidonic acid challenge by turbidimetric method.
Assay [8] can be described thus: Antiplatelet activity against washed rabbit platelet assessed as platelet activating factor-induced platelet aggregation at 50 ug/mL preincubated 3 mins before PAF challenge by turbidimetric method.
A short description of assay [9]: Antiplatelet activity against washed rabbit platelet assessed as arachidonic acid-induced platelet aggregation at 20 ug/mL pre-incubated 3 mins before arachidonic acid challenge by turbidimetric method.
Assay [10] in a line: Antiplatelet activity against washed rabbit platelet assessed as arachidonic acid-induced platelet aggregation at 10 ug/mL pre-incubated 3 mins before arachidonic acid challenge by turbidimetric method.
A short description of assay [11]: Antiplatelet activity against washed rabbit platelet assessed as collagen-induced platelet aggregation at 20 ug/mL pre-incubated 3 mins before collagen challenge by turbidimetric method.
Assay [12] in a line: Antiplatelet activity against washed rabbit platelet assessed as arachidonic acid-induced platelet aggregation at 5 ug/mL pre-incubated 3 mins before arachidonic acid challenge by turbidimetric method.
Assay [13] in a line: Antiplatelet activity against washed rabbit platelet assessed as platelet activating factor-induced platelet aggregation at 20 ug/mL pre-incubated 3 mins before PAF challenge by turbidimetric method.
Assay [14] can be described thus: Antiplatelet activity against washed rabbit platelet assessed as thrombin-induced platelet aggregation at 20 ug/mL pre-incubated 3 mins before thrombin challenge by turbidimetric method.

As for `COc1ccc2c(OC)c3c(nc2c1OC)O[C@H](C(C)(C)O)C3`, the Aggregation % at 100 µg/mL in assay [1] came out at 81.7%; in [2] it was 89.8%; in assay [3] it was 86.5%; in assay [4], 84.4%.
The matching figures for `COc1ccc2c(OC)c3c(nc2c1OC)O[C@@H](C(C)(C)O)[C@H]3O`: 78.3%, 89.4%, 85.4% and 79%.
Turning to `CC(=O)Oc1ccccc1C(=O)O` [ASPIRIN], in assay [5], the aggregation at 50 µg/mL stood at 94.2%. Besides, the Aggregation % at 50 µg/mL in assay [6] came to 88.4%; in [7], 7.8%; in assay [8], 91.2%. The Aggregation % at 20 µg/mL in assay [9] is 11.7%.
With `COc1cc(O)c2c(=O)c(OC)c(-c3ccc(OC)c(O)c3)oc2c1` [AYANIN], the Aggregation % at 100 µg/mL in assay [1] is 13.3%; in assay [2], 88.3%; in assay [3], 85.4%; in assay [4], 43.1%. Moreover, the figures for the Aggregation % at 50 µg/mL in [6] and in assay [7] were 66.1% and 38%, respectively. For the same compound, the Aggregation % at 10 µg/mL in [10] stood at 77.2%. Moreover, the results for the Aggregation % at 20 µg/mL in [11] and in assay [9] were 80.3% and 66.3%, respectively. Besides, the Aggregation % at 5 µg/mL in assay [12] came to 81.9%.
Take `COc1c2ccc(O)cc2nc2occc12` [CONFUSAMELINE]: the Aggregation % at 100 µg/mL in [1] is 0%; in assay [2], 78.6%; in assay [4], 11.4%.
Turning to `COc1cc2nc3occc3c(OC)c2cc1OC` [KOKUSAGININE], the values for the Aggregation % at 100 µg/mL in [1], in assay [2] and in assay [4] were 0%, 70.7% and 15.2%, respectively. In addition, the values for the Aggregation % at 50 µg/mL in assay [6], in assay [7] and in [8] were 80.6%, 0% and 88.9%, respectively.
With `CCCCCCCC/C=C\CCCCCCCC(=O)OC` [METHYL OLEATE], the Aggregation % at 20 µg/mL was found to be 84.4% in assay [11], 89.4% in assay [13], 81.7% in assay [9] and 86.7% in assay [14].
Take `CC(C)=CCc1c(O)ccc2ccc(=O)oc12` [OSTHENOL]: the Aggregation % at 100 µg/mL came out at 23.2% in [1], 89.8% in assay [2], 90.4% in assay [3] and 13.7% in assay [4]. Moreover, the Aggregation % at 50 µg/mL in assay [6] was 79.2%; in assay [7], 84.8%. In addition, the Aggregation % at 20 µg/mL in [11] was 87%.
As to `COc1ccc2ccc(=O)oc2c1CC=C(C)C` [OSTHOLE], the Aggregation % at 100 µg/mL in assay [1] is 0%; in assay [2], 0%; in assay [3], 86.6%; in assay [4], 7.4%. Further, the Aggregation % at 50 µg/mL in assay [6] was 7%; in assay [7], 52.6%; in [8], 88.6%. Besides, the Aggregation % at 20 µg/mL was 88.1% in assay [11], 90% in [13] and 84.5% in assay [9].
On to `COCc1c(OC)c2ccc(OC)cc2[nH]c1=O` [SEMECARPIFOLINE], for which the Aggregation % at 100 µg/mL in assay [1] was 81%; in [2] it was 88.8%; in assay [3] it was 85.8%; in [4] it was 82.7%.
The matching figures for `COc1cc(C(=O)O)cc(OC)c1O` [SYRINGIC ACID]: 83.2%, 89.6%, 88.3% and 85.1%.
